Structures are written as SMILES.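 Grown in 96-well plates, cells were treated for 48 hours with each compound at five concentrations. Insufficient inhibition: endpoint recorded as highest concentration tested. GI50 = concentration required for 50% inhibition of growth.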 Calls of active or inactive are those of the source. Cut-off read from the data, not from the text of the source: active = GI50 up to about 1.1 µM and inactive = higher.

Data on ten compounds can be found in ChEMBL document CHEMBL1201862, “PubChem BioAssay data set” (2004).

What all share (assay): NCI-60 cell line screen, 48 h
In assay [1] the test system is 786-0.
The subject of assay [2] is ACHN.
Assay [3] relates to CAKI-1.
The test system of assay [4] is DU-145.
Assay [5] has as its system EKVX.
For assay [6], the system named is HOP-62.
Assay [7] relates to IGROV-1.
Assay [8] concerns MCF7.
Assay [9] deals with NCI-H23.
Assay [10] deals with NCI/ADR-RES.
For assay [11], the system named is OVCAR-4.
For assay [12], the system named is OVCAR-5.
Assay [13] concerns OVCAR-8.
The subject of assay [14] is PC-3.
For assay [15], the system named is RXF 393.
Assay [16] concerns SF-295.
Assay [17] concerns SF-539.
In assay [18] the test system is SNB-19.
The test system of assay [19] is U-251.
Assay [20] concerns UACC-257.

On to `CS/C(C#N)=C(\C#N)SC`, for which the GI50 in assay [1] is 4.89 µM (inactive); in assay [2] it was 4.33 µM (inactive); in assay [3], 6.04 µM (inactive); in assay [4] it was 13.6 µM (inactive); in assay [5], 19 µM (inactive); in assay [6], 16.6 µM (inactive). The GI50 in assay [7] is 6.25 µM (inactive); in assay [8] it was 2.22 µM (inactive); in assay [9] it was 5.61 µM (inactive); in assay [10], 18.8 µM (inactive); in assay [11] it was 13.4 µM (inactive); in assay [12] it was 26.3 µM (inactive). Moreover, the GI50 in assay [13] is 2.74 µM (inactive); in assay [14], 15.2 µM (inactive); in assay [15] it was 1.82 µM (inactive); in assay [16] it was 18.5 µM (inactive); in [17] it was 9.64 µM (inactive); in assay [18], 25.7 µM (inactive). Also, the values for the GI50 in [19] and in [20] were 4.45 µM (inactive) and 10.9 µM (inactive), respectively.
Turning to `S=c1[nH]c2ccc(Br)cc2c(=S)s1`, the GI50 in assay [1] is 30.8 µM (inactive); in assay [2], 22.2 µM (inactive); in assay [3] it was 21.8 µM (inactive); in assay [4], 38.1 µM (inactive); in assay [5], 27.8 µM (inactive); in assay [6], 34.8 µM (inactive). The GI50 is 22.1 µM (inactive) in assay [7]; 17.9 µM (inactive) in assay [8]; 25.6 µM (inactive) in assay [9]; 28.6 µM (inactive) in assay [10]; 10.8 µM (inactive) in assay [11]; 19.2 µM (inactive) in assay [12]. Besides, the GI50 in assay [13] is 31.6 µM (inactive); in assay [14], 19.3 µM (inactive); in assay [15] it was 27.6 µM (inactive); in assay [16] it was 27.4 µM (inactive); in assay [17], 34.4 µM (inactive); in assay [18], 31.5 µM (inactive). Also, the GI50 in assay [19] was 22.9 µM (inactive); in assay [20], 23.5 µM (inactive).
Take `CCOC(=O)N1CCC2(CC1)C[C@](Sc1ccccc1)(C(C)=O)[C@H](C)O2`: the GI50 in [1], in assay [2], in assay [3], in [4], in assay [5] and in assay [6] was > 100 µM (inactive) throughout. Besides, the GI50 in assay [7], in [8], in assay [9], in assay [10], in assay [11] and in assay [12] was > 100 µM (inactive) each time. Besides, the GI50 in assay [13], in assay [14], in assay [15], in assay [16], in assay [17] and in [18] was > 100 µM (inactive) each time. Further, the GI50 in assay [19] and in assay [20] was > 100 µM (inactive) each time.
Take `C#CCN1CCN(C(=S)N/N=C(\C)c2ccccn2)CC1`: the GI50 in [1] is 0.0721 µM (active); in [2] it was 0.044 µM (active); in assay [3], 1.42 µM (inactive); in [4], 1.48 µM (inactive); in [5] it was 0.0792 µM (active); in assay [6] it was 0.363 µM (active). Besides, the GI50 in assay [7] is 0.01 µM (active); in assay [8], 0.01 µM (active); in assay [9], 0.01 µM (active); in assay [10] it was 0.01 µM (active); in [11], 0.35 µM (active); in assay [12], 0.069 µM (active). Further, the GI50 is 0.01 µM (active) in [13]; 0.00975 µM (active) in [14]; 0.465 µM (active) in assay [15]; 0.632 µM (active) in [16]; 1.49 µM (inactive) in assay [17]; 2.99 µM (inactive) in assay [18]. The GI50 in [19] was 0.0189 µM (active); in [20] it was < 0.014 µM (active).
On to `Cc1cc(=O)[nH]c2cc(NC(=O)C(C)NC(=O)C(C)NC(=O)C(C)NC(=O)OC(C)(C)C)ccc12` (stereo not given), for which the GI50 in [1], in assay [2], in assay [3], in assay [4], in assay [5] and in assay [6] was > 15 µM (inactive) in each case. Besides, the GI50 in [7], in assay [8], in assay [9], in assay [10], in assay [11] and in [12] was > 15 µM (inactive) throughout. For the same compound, the GI50 in assay [13], in [14], in [15], in [16], in [17] and in assay [18] was > 15 µM (inactive) throughout. Also, the GI50 in [19] and in [20] was > 15 µM (inactive) in each case.
Turning to `Cc1cn(Cc2ccccc2CCl)c(=O)[nH]c1=O`, the GI50 in assay [1] was 14.2 µM (inactive); in [2], 12.6 µM (inactive); in [3] it was 10.4 µM (inactive); in [4], 13.1 µM (inactive); in [5], 16.4 µM (inactive); in assay [6], 15.6 µM (inactive). Moreover, the GI50 in assay [7] was 3.46 µM (inactive); in [8], 4.84 µM (inactive); in assay [9] it was 10.2 µM (inactive); in assay [10] it was 18.2 µM (inactive); in assay [11] it was 34.3 µM (inactive); in assay [12], 23.3 µM (inactive). The GI50 in assay [13] was 12.1 µM (inactive); in [14] it was 16 µM (inactive); in [15] it was 8 µM (inactive); in [16], 13.8 µM (inactive); in [17] it was 5.56 µM (inactive); in assay [18] it was 12.3 µM (inactive). Also, the GI50 in [19] is 7.94 µM (inactive); in assay [20] it was 13.4 µM (inactive).
Take `O=[N+]([O-])c1ccc(/C(=N/c2ccccc2)SS/C(=N\c2ccccc2)c2ccc([N+](=O)[O-])o2)o1`: the GI50 in [1] is 1.4 µM (inactive); in assay [2], 1.91 µM (inactive); in assay [3], 1.97 µM (inactive); in [4], 1.69 µM (inactive); in [5] it was 1.77 µM (inactive); in assay [6], 2.17 µM (inactive). The GI50 in assay [7] is 1.6 µM (inactive); in assay [8], 0.444 µM (active); in assay [9], 1.6 µM (inactive); in assay [10], 1.86 µM (inactive); in assay [11], 1.47 µM (inactive); in assay [12], 2.08 µM (inactive). Moreover, the GI50 in [13] is 1.52 µM (inactive); in [14], 1.7 µM (inactive); in [15] it was 1.75 µM (inactive); in [16], 2.76 µM (inactive); in [17] it was 0.83 µM (active); in assay [18], 1.84 µM (inactive). The GI50 in assay [19] is 0.955 µM (active); in [20], 2.11 µM (inactive).
In the case of `CCCCCCCCCCCCN(CC(O)C(O)C(OC1OC(CO)C(O)C(O)C1O)C(O)CO)C(=O)CCCCCCCCCCC` (stereo not given), the GI50 is 19 µM (inactive) in assay [1]; 16.9 µM (inactive) in assay [2]; 19 µM (inactive) in [3]; 20.6 µM (inactive) in assay [4]; 18.8 µM (inactive) in assay [5]; 25.8 µM (inactive) in assay [6]. The GI50 is 19.9 µM (inactive) in [7]; 28.1 µM (inactive) in assay [8]; 21.4 µM (inactive) in assay [9]; 23.8 µM (inactive) in assay [10]; 21.4 µM (inactive) in assay [11]; 41 µM (inactive) in assay [12]. The GI50 in [13] is 23 µM (inactive); in [14], 25.2 µM (inactive); in assay [15], 26.9 µM (inactive); in assay [16], 19 µM (inactive); in assay [17] it was 39.8 µM (inactive); in [18], 17.9 µM (inactive). The GI50 in assay [19] is 18.6 µM (inactive); in assay [20], 20.9 µM (inactive).
As to `Nc1ncnc2c1ncn2C1OC(CO)C(O)C1NS(=O)(=O)c1ccccc1` (stereo not given), the GI50 in assay [1], in assay [2], in assay [3], in assay [4], in [5] and in assay [6] was > 100 µM (inactive) each time. The GI50 in [7], in [8], in assay [9], in [10], in [11] and in [12] was > 100 µM (inactive) each time. The GI50 in assay [13], in assay [14], in [15], in assay [16], in [17] and in assay [18] was > 100 µM (inactive) throughout. Also, the GI50 in assay [19] and in [20] was > 100 µM (inactive) in each case.
Take `N#Cc1ccc(C2ON=C(c3ccccc3)N2C23CC4CC(CC(C4)C2)C3)cc1` (stereo not given): the GI50 in assay [1], in [2], in assay [3], in [4], in [5] and in assay [6] was > 10 µM (inactive) in each case. Besides, the GI50 was > 10 µM (inactive) in assay [7]; > 10 µM (inactive) in assay [8]; > 10 µM (inactive) in assay [9]; 0.00536 µM (active) in assay [10]; > 10 µM (inactive) in [11]; > 10 µM (inactive) in [12]. Besides, the GI50 was > 10 µM (inactive) in [13]; 7.98 µM (inactive) in assay [14]; > 10 µM (inactive) in assay [15]; > 10 µM (inactive) in [16]; > 10 µM (inactive) in [17]; > 10 µM (inactive) in [18]. Moreover, the GI50 in assay [19] and in assay [20] was > 10 µM (inactive) throughout.
